Among the data in ChEMBL document CHEMBL1146675, “Kringle 5 peptide-albumin conjugates with anti-migratory activity” (Bioorg Med Chem Lett, 2004) are Activity values, retold here.

Peptide text beside a SMILES is read from it. * marks the point of attachment. Propanoyl(3-maleimido) = O=C1C=CC(=O)N1CCC(=O)*

The assay is filed under the species Homo sapiens. In words: Percent of unbound maleimide to human serum albumin. In kind it is functional.
Consider `CC(=O)N[C@@H](CCCN=C(N)N)C(=O)N[C@@H](CC(N)=O)C(=O)N1CCC[C@H]1C(=O)N[C@@H](CC(=O)O)C(=O)NCC(=O)N[C@@H](CC(=O)O)C(=O)N[C@H](C(=O)NCC(=O)NCC(=O)N1CCC[C@H]1C(=O)N[C@@H](Cc1c[nH]c2ccccc12)C(=O)N[C@@H](C)C(=O)N[C@@H](Cc1ccc(O)cc1)C(=O)N[C@H](C(=O)N[C@H](C(=O)N[C@@H](CC(N)=O)C(=O)N1CCC[C@H]1C(=O)N[C@@H](CCCN=C(N)N)C(=O)N[C@@H](CCCCN)C(=O)N[C@@H](CC(C)C)C(=O)N[C@@H](Cc1ccc(O)cc1)C(=O)N[C@@H](CC(=O)O)C(=O)N[C@@H](Cc1ccc(O)cc1)C(=O)N[C@@H](CCCCNC(=O)CCN1C(=O)C=CC1=O)C(N)=O)[C@@H](C)O)[C@@H](C)O)C(C)C` (Ac-RNPDGDVGGPWAYTTNPRKLYDYK(Propanoyl(3-maleimido))-NH2), for which the Activity was 0.22%.
The same measure for `CC(C)C[C@H](NC(=O)[C@H](CCCCN)NC(=O)[C@H](CCCN=C(N)N)NC(=O)[C@@H]1CCCN1C(=O)CCN1C(=O)C=CC1=O)C(=O)N[C@@H](Cc1ccc(O)cc1)C(=O)N[C@@H](CC(=O)O)C(=O)N[C@@H](Cc1ccc(O)cc1)C(N)=O` ({Propanoyl(3-maleimido)}-PRKLYDY-NH2): 1.1%; for `CC(C)C[C@H](NC(=O)[C@H](CCCCN)NC(=O)[C@H](CCCN=C(N)N)NC(=O)[C@@H]1CCCN1C(=O)[C@H](CC(N)=O)NC(=O)[C@@H](NC(=O)[C@@H](NC(=O)[C@H](Cc1ccc(O)cc1)NC(=O)[C@H](C)NC(=O)[C@H](Cc1c[nH]c2ccccc12)NC(=O)[C@@H]1CCCN1C(=O)CNC(=O)CNC(=O)[C@@H](NC(=O)[C@H](CC(=O)O)NC(=O)CNC(=O)[C@H](CC(=O)O)NC(=O)[C@@H]1CCCN1C(=O)[C@H](CC(N)=O)NC(=O)[C@H](CCCN=C(N)N)NC(=O)CCN1C(=O)C=CC1=O)C(C)C)[C@@H](C)O)[C@@H](C)O)C(=O)N[C@@H](Cc1ccc(O)cc1)C(=O)N[C@@H](CC(=O)O)C(=O)N[C@@H](Cc1ccc(O)cc1)C(N)=O` ({Propanoyl(3-maleimido)}-RNPDGDVGGPWAYTTNPRKLYDY-NH2): 1.6%.
